Measurements taken from ChEMBL document CHEMBL1201862, “PubChem BioAssay data set” (2004).
The source made the active and inactive calls.

Tests used:
[1] = target: T1, Zinc finger protein mex-5 (Caenorhabditis elegans, UniProt Q9XUB2); assay: potency of MEX-5 RNA-binding blockers – biochemical, C. elegans, fluorescence polarization, dose response (AID 1960)
T1 sequence (Q9XUB2 whole entry): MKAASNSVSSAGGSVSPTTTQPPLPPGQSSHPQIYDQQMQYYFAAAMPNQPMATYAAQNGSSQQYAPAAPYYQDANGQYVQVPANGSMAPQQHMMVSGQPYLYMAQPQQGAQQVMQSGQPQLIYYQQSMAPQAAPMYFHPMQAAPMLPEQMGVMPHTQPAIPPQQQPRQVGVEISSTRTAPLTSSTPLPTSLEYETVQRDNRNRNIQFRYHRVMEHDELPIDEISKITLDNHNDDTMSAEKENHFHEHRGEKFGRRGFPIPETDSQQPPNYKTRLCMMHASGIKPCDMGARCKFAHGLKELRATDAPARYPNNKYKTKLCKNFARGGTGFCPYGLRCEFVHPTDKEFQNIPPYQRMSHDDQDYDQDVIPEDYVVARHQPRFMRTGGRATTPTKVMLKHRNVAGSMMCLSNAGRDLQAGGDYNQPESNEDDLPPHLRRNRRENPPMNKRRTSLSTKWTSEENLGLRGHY

[2] = target: T2, RNA-binding protein pos-1 (Caenorhabditis elegans, UniProt G5EF15); assay: disruptors of C. elegans POS-1 RNA interaction – biochemical, fluorescence polarization, dose response (AID 1964);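 also: purified POS-1 fused to maltose binding protein made in E. coli; potency of compounds blocking POS-1 binding to fluorescent RNA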
T2 sequence (G5EF15 whole entry): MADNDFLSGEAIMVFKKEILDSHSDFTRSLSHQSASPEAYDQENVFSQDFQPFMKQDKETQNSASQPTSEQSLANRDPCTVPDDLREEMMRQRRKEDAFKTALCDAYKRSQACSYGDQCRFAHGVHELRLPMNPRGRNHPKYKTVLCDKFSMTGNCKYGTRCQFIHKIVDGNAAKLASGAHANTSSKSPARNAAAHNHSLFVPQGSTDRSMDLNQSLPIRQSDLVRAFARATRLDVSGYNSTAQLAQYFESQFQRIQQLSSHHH

[3] = target: Cytochrome P450 3A4 (Homo sapiens, UniProt P08684);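 also: CYP3A4 tested as one member of a cytochrome P450 panel screen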
[4] = target: T3, Cytochrome P450 1A2 (Homo sapiens, UniProt P05177);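 also: PubChem cytochrome P450 panel assay, CYP1A2 panel member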
T3 sequence (P05177 whole entry): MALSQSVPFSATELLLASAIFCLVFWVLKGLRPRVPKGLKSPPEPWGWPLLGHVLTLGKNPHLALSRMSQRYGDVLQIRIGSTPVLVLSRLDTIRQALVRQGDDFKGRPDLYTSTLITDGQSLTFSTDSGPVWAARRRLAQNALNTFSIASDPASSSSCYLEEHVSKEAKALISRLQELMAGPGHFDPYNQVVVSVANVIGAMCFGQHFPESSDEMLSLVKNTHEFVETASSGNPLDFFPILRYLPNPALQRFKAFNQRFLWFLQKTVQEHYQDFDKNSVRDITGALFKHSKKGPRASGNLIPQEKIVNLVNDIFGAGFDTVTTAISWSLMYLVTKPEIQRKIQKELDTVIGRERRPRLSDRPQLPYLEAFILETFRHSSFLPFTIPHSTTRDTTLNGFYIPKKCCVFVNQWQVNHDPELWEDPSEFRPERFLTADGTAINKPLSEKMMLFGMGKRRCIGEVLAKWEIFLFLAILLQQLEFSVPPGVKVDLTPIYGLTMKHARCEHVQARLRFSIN

[5] = system: H4; assay: Luminescence Cell-Based Dose Response HTS to Identify Activators of 5'UTR Stem-Loop Driven Prion Protein mRNA Translation in H4 Neuroglioblastoma Cells. [Related pubchem assays: 1829 (Project Summary), 1814 (Primary HTS)]; type: functional; conditions: Homo sapiens
[6] = Luminescence Cell-Based Dose Response HTS to Identify Activators of Luciferase Translation or Activity in H4 […] Cells. [Related pubchem assays: 1829 (Project Summary), 1814 (Primary HTS)]; type: functional
[7] = cells; type: functional
[8] = Trypanosoma cruzi growth suppression in host cells – NIH3T3 host cells, beta-gal luminescence, confirmation (AID 2044); type: functional, cell-based;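 also: intracellular parasites grown in NIH/3T3 mouse fibroblasts as host cells; luminescent beta-galactosidase reporter signal from transgenic T. cruzi replicating inside host cells; inhibitors lower the luminescence signal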
[9] = NIH3T3 cell viability loss – ATP luminescence, mouse fibroblasts, counter-screen, dose response (AID 2010); type: functional, cell-based;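 also: cells exposed to compound for about 90 hours before reading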
[10] = cells; type: functional, cell-based
[11] = alpha-synuclein stem-loop luciferase translation blockers – H4 neuroglioma cells, luminescence, confirmation (AID 1988); type: functional, cell-based
[12] = Luminescence Cell-Based Dose Response HTS to Identify Inhibitors of 5'UTR Stem-Loop Driven Prion Protein mRNA Translation in H4 Neuroglioblastoma Cells. [Related pubchem assays: 1827 (Project Summary), 1813 (Primary HTS)]; type: functional
[13] = system: INS1; assay: INS-1E survival protection against cytokine death – cell-based, luminescence, retest, dose response (AID 449756); type: functional; conditions: Rattus norvegicus;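 also: cell death triggered by IL-1 beta plus TNF-alpha plus IFN-gamma mixture; protective hits raise ATP signal compared with cytokine alone wells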
[14] = luciferase reporter signal suppression in cells – H4 neuroglioma cells, luminescence, dose response (AID 1990); type: functional, cell-based
[15] = target: T4, Corticotropin-releasing factor receptor 2/Corticotropin-releasing factor-binding protein (Homo sapiens, UniProt P24387+Q13324); assay: activators of CRF receptor 2 with binding protein – uHTS hits, confirmation (AID 602473); type: functional; conditions: read-out: EC50_Mean
T4 sequence (Q13324 whole entry): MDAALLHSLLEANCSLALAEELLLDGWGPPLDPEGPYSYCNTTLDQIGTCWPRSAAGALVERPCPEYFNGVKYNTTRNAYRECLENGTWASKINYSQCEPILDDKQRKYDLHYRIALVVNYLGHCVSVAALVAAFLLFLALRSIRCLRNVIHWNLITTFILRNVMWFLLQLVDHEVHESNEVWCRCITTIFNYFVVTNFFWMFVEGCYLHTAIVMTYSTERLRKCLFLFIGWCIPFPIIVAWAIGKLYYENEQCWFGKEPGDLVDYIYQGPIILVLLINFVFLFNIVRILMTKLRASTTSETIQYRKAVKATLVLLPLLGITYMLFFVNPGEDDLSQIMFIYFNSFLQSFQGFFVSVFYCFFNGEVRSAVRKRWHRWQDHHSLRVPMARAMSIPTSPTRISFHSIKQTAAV
T4 sequence (P24387 whole entry): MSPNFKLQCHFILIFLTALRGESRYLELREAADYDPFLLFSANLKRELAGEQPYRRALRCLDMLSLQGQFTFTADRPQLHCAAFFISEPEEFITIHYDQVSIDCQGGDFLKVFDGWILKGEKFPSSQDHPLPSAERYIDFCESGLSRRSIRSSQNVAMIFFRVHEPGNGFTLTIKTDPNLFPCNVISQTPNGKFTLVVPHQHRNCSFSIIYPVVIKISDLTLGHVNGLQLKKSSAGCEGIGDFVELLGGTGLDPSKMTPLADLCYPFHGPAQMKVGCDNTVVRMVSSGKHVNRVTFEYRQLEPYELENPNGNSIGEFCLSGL

[16] = cells; type: functional, cell-based; remark: listed apart in the source
[17] = target: Cytochrome P450 2C19 (Homo sapiens, UniProt P33261); assay: Cytochrome panel assay with activity outcomes. Panel member name: p450-cyp2c19 Compounds with AC50 equal or less than 10 uM are considered active; type: functional
[18] = system: Streptococcus sp. 'group A'; assay: Streptococcus pyogenes SK(-)GAS viability under kanamycin – luminescence, BacTiterGlo, confirmation, counter-screen for streptokinase expression inhibitor project, dose response (AID 1900); type: functional, organism-based
[19] = system: Streptococcus; assay: GAS UMAA2166 growth inhibition – luminescence, BacTiterGlo, counter-screen for streptokinase expression inhibitor project, dose response (AID 1915); type: functional, organism-based;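 also: potency for reduction of bacterial viability or growth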

Cytochrome P450 3A4, sequence (P08684 whole entry): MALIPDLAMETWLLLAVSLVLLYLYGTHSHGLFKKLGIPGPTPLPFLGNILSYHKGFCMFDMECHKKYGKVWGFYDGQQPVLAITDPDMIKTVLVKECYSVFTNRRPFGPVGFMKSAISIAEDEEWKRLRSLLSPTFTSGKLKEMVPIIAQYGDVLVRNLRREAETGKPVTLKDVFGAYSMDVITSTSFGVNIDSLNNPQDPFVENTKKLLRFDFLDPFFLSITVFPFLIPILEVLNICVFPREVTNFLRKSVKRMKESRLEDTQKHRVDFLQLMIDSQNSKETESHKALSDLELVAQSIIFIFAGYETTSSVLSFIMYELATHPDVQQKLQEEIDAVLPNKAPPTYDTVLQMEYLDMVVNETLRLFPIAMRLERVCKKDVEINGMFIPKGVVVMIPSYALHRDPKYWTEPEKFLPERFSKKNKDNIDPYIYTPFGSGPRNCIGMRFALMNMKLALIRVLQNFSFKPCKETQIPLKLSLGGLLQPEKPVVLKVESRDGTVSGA
Cytochrome P450 2C19, sequence (P33261 whole entry): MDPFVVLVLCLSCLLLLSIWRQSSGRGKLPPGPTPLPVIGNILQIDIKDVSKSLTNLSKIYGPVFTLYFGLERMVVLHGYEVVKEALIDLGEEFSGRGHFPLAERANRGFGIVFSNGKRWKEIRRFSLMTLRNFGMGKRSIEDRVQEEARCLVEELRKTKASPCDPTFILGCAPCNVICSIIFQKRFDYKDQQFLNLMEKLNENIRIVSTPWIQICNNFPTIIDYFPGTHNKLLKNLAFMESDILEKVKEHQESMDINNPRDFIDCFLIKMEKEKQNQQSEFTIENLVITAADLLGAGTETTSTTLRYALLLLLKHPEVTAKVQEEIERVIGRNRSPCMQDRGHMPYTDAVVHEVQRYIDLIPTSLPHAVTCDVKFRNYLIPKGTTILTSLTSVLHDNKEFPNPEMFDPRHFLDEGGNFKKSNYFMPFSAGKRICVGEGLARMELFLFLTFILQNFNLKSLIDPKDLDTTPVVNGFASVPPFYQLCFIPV

O=C1NC(=O)N(c2cccc(Cl)c2)C(=O)/C1=C\Nc1ccccn1
EC50 [1]: > 300 µM (not active) | EC50 [2]: > 300 µM (not active)

COc1ccccc1N1CCN(CCN2C(=O)c3ccccc3C(C)(C)C2=O)CC1
AC50 [3]: 15.8 µM (inconclusive) | AC50 [4]: 39.8 µM (inconclusive)

COc1ccccc1N1CCN(CCn2c(=O)[nH]c3c([nH]c4ccccc43)c2=O)CC1
AC50 [3]: 15.8 µM (inconclusive) | AC50 [4]: 39.8 µM (inconclusive)

CCN1C(=O)/C(=C\c2cccs2)C(C(=O)OC)=C1C
EC50 [1]: > 300 µM (not active) | EC50 [2]: > 300 µM (not active)

COCCNc1ncnc2ccc(-c3ccccc3CN(C)C)cc12
AC50 [3]: 31.6 µM (inconclusive) | AC50 [4]: 25.1 µM (inconclusive)

CCOc1ccc(C(=O)CSc2nnc3ccccn23)cc1
EC50 [5]: > 120 µM (not active) | EC50 [6]: 35.7 µM (active)

COC(=O)CCCC(=O)N1CCCC(C(=O)c2ccc(-c3ccccc3)cc2)C1 (configuration not stated)
IC50 [7]: > 50 µM (active)

C/C(Cn1nnc([N+](=O)[O-])n1)=N\NC(=O)c1ccncc1
IC50 [7]: 0.3 µM (active) | EC50 [8]: 0.214 µM (active) | EC50 [9]: > 30 µM (not active)

O=C(c1ccccc1-c1nc(-c2ccccc2)no1)N1CCOCC1
AC50 [3]: 28.2 µM (inconclusive) | AC50 [4]: 39.8 µM (inconclusive)

COc1ccccc1N(CC(=O)N/N=C/c1c(O)ccc2ccccc12)S(C)(=O)=O
EC50 [10]: 9.19 µM (active) | EC50 [11]: 8.56 µM (active) | EC50 [12]: 22.8 µM (active) | AC50 [13]: 2.15 µM (active) | EC50 [14]: 13.5 µM (active)

N#C/C(=C/c1cccn1-c1cccc(C(=O)O)c1)c1ccc(Cl)cc1
EC50 [1]: > 300 µM (not active) | EC50 [2]: > 300 µM (not active)

CCc1cccc(C)c1NC(=S)N1CCCCC1c1cccnc1 (configuration not stated)
EC50 [15]: 6.05 µM (active)

CC(=O)Nc1nc(C)c(-c2csc(Nc3ccccn3)n2)s1
EC50 [10]: > 350 µM (not active) | EC50 [16]: 5.87 µM (active)

C=CCN1C(c2cccc(C(F)(F)F)c2)=CS/C1=C(\C#N)c1nnc(N2CCOCC2)n1-c1ccccc1
EC50 [15]: > 53 µM (inactive)

CS(=O)(=O)c1cccc(C(=O)N(CCc2ccccc2)Cc2cccs2)c1
EC50 [10]: > 350 µM (not active) | EC50 [16]: > 350 µM (not active)

CC(NC(=O)c1cc2c(s1)CS(=O)(=O)C2)c1ccccc1 (configuration not stated)
EC50 [10]: > 350 µM (not active) | EC50 [16]: > 350 µM (not active)

c1ccc2[nH]c(NC3=NCCC3)nc2c1
IC50 [7]: 12.2 µM (active) | AC50 [17]: inconclusive

Cc1cc(=O)oc2cc(OCC(=O)N3CCN(c4ccc(F)cc4)CC3)ccc12
EC50 [10]: > 350 µM (not active) | EC50 [16]: > 350 µM (not active)

CCOc1ccccc1N1CCN(C(=S)NC(=O)C23CC4CC(CC(C4)C2)C3)CC1
EC50 [10]: > 350 µM (not active) | EC50 [11]: 17.3 µM (active) | EC50 [12]: 24.5 µM (active) | EC50 [16]: > 350 µM (not active) | EC50 [14]: > 120 µM (not active)

COc1ccc(C2C(C#N)=C(N)Oc3cc(O)ccc32)cc1C (configuration not stated)
EC50 [15]: > 53 µM (inactive)

CN(C)c1ccc(C=NN2C(=O)CSC2=S)c(Cl)c1
EC50 [15]: > 53 µM (inactive)

CCOC(=O)N1CCC(NC(=O)c2cc(S(=O)(=O)N3CCCC3)cn2C)CC1
AC50 [3]: 14.1 µM (inconclusive) | AC50 ([17]; read-out: AC50): 8.91 µM (inconclusive)

Cc1nc2nc3c(cn2n1)C(=O)CC(c1ccccc1)C3 (configuration not stated)
EC50 [10]: > 350 µM (not active)

CN1C(=O)/C(=C/c2ccccc2F)Sc2ccc(C(=O)N3CCCC3)cc21
EC50 [18]: 1.06 µM (active) | EC50 [19]: 2.66 µM (active)

O=C(c1ccccc1)c1cc2cc(Cl)ccc2[nH]1
EC50 [5]: 13.9 µM (active) | EC50 [6]: 94.6 µM (active)

O=C(COC(=O)c1ccc(Cl)s1)c1ccc[nH]1
IC50 [7]: 5.77 µM (active)

CCc1ccc(NC(=O)COc2ccc3c(c2)OCO3)cc1
IC50 [7]: > 50 µM (active)

Cc1ccc(/C=N/NC(=O)c2ccc(Br)o2)s1
EC50 [10]: > 350 µM (not active) | EC50 [16]: 37.1 µM (active)

COc1ccc(CC(=O)NN=C(S)NCC2CC2)cc1OC
EC50 [10]: > 350 µM (not active) | EC50 [16]: > 350 µM (not active)

CCCN(Cc1nnc(-c2ccccc2Cl)o1)C(=O)c1cc([N+](=O)[O-])cc([N+](=O)[O-])c1
IC50 [7]: 5.87 µM (active)

O=C(CNS(=O)(=O)c1ccc([N+](=O)[O-])cc1)N/N=C\c1ccc(O)cc1
EC50 [15]: 7.12 µM (active)

Cc1ccc(C(=O)Nc2nccs2)cc1
IC50 [7]: 41.4 µM (active)

CCOc1ccc(C2=NN=C(c3ccc(N4CCOCC4)cc3)c3ccccc3N2)cc1
EC50 [5]: > 120 µM (not active) | EC50 [6]: 30.1 µM (active)
